Test results published in patent US12409174B2, “Combination of zibotentan and dapagliflozin for the treatment of endothelin related diseases” (priority 2020, dated 2025).
Read-outs that look alike come from different tables or passages of the source.

Columns and labels:
[1] = tested on: patients with CKD with and without type 2 diabetes; conditions: dapagliflozin 10 mg
Method: The effect of dapagliflozin on albuminuria was investigated in patients with CKD with and without type 2 diabetes. In this analysis from the Phase 3 DAPA CKD trial, the efficacy of dapagliflozin was assessed to determine whether treatment with dapagliflozin reduces the level of albuminuria in patients with CKD.
In the trial, 4304 patients with estimated glomerular filtration rate 25-75 mL/min/1·73 m2 and urinary UACR 200-5000 mg/g were randomized to dapagliflozin (10 mg) or placebo. Change in albuminuria was assessed as the mean change in log-transformed UACR from baseline to end of study. Regression in UACR stage, defined as a transition from macroalbuminuria (≥300 mg/g) to micro- or normoalbuminuria (<300 mg/g), and progression in UACR stage, defined as a transition from <3000 mg/g to ≥3000 mg/g, were additional endpoints.

[2] = tested on: male Wistar rats on 4% salt diet; assay: Effect of zibotentan on haematocrit (Hct) concentration, Experiment 1; assay type: in vivo; conditions: Exp 1; for Hct concentration compared to vehicle: FIG. 4
Method: The effect of dapagliflozin and zibotentan on haematocrit (Hct) concentration in male Wistar rats on 4% salt diet was investigated.
(§1) In the first experiment (Experiment 1), the effect of zibotentan on haematocrit (Hct) concentration was determined when zibotentan was administered peroral (p.o) QD for 14 days. […] Animals were weighed daily prior to dosing throughout the experiment. Blood samples (20 μL) for bioanalysis were taken at 4 and 24 hr after the first dose via the tail vein from conscious animals and 24 hr after the last dose via retroorbital route from anesthetized animals. Blood samples were collected via tail vein (100 μL) for Hct concentration and haemoglobin (Hb) measurements, on day 7 and on day 14, 1-2 hr after dosing. Twenty-four hour urine was collected for the measurement of urinary glucose, urine volume and electrolytes between doses nine and ten. Animals were terminated 24 hr after the last dose. On the day of termination, animals were anesthetized using 5% isoflurane, and blood was collected via the retroorbital route (in heparin-coated microvette, Sarsted) and centrifuged at 3,500 rpm at 4° C. for 10 minutes, plasma was collected and stored at −80° C. degrees prior to analysis. Animals were then euthanized by the removal of the heart. Both the heart and the kidneys were extracted and weighed. From the right kidney, a 4 mm thick slice of tissue was collected and fixed in 4% formaldehyde for subsequent histological analysis and a piece of cortical kidney tissue and heart tissue was collected for gene expression analysis.
(§2) For Hct and Hb analysis, 100 μl of blood from rat's tail vein was collected and measured using CG8 cartridges analysed with an iSTAT instrument (Abbott Point of Care Inc, Abbot Park, IL, USA).
(§3) Significance was set at p<0.05.

[3] = Effect of zibotentan on body weight, Experiment 1; assay type: in vivo, male Wistar rats; conditions: Exp 1; for Body weight, Difference in means vs Vehicle: log scale, linear mixed effects model
Method: as §1, §3

[4] = tested on: male Wistar rats on 4% salt diet; assay: Effect of zibotentan on Hb, Experiment 1; assay type: in vivo; conditions: Exp 1
Method: as §1, §2, §3

[5] = tested on: male Wistar rats on 4% salt diet; assay: Effect of zibotentan on plasma Na, K, glucose and urea, Experiment 1; assay type: in vivo; conditions: Exp 1
Method: as §1
(§4) Plasma and Urine Albumin, Creatinine, Glucose, Urea, Potassium and Sodium levels were analyzed using an ABX Pentra 400 instrument (Horiba Medical, Irvine, California, USA) according to the manufacturers protocol.
as §3

[6] = tested on: male Wistar rats on 4% salt diet; assay: Effect of zibotentan on urinary volume and Na, K, urea, creatinine, glucose in the urine, Experiment 1; assay type: in vivo; conditions: Exp 1; for Urine Creatine / Urine Glucose / Urine K / Urine Na / Urine Urea / Urine volume: 24 hr urine between doses nine and ten
Method: as §1, §4, §3

[7] = treatment of prostate cancer; development stopped in 2011; cited from earlier work

With CCOc1ccc(Cc2cc([C@@H]3O[C@H](CO)[C@@H](O)[C@H](O)[C@H]3O)ccc2Cl)cc1 [Dapa, (1S)-1,5-anhydro-1-{4-chloro-3-[(4-ethoxyphenyl)methyl]phenyl}-D-glucitol] the “Progression in UACR stage, hazard ratio” value ([1]; 3820 patients with UACR<3000 mg/g at baseline, 95% CI 0.32-0.52) was 0.41, the “Regression in UACR stage, hazard ratio” value ([1]; 3860 patients with UACR≥300 mg/g at baseline, 95% CI 1.60-2.05) was 1.81 and the “UACR reduction compared to placebo” value ([1]; CKD patients with and without type 2 diabetes, baseline to end of study, 95% CI 25.2-33.1%) was 29.3%. For the same compound, the “UACR reduction compared to placebo” value ([1]; CKD patients with type 2 diabetes, 95% CI 30.6-39.4%) was 35.1% and the “UACR reduction compared to placebo” value ([1]; CKD patients without type 2 diabetes, 95% CI 5.9-22.9%) was 14.8%.
For COc1nc(C)cnc1NS(=O)(=O)c1cccnc1-c1ccc(-c2nnco2)cc1 [Zibo, N-(3-methoxy-5-methylpyrazin-2-yl)-2-[4-(1,3,4-oxadiazol-2-yl)phenyl]pyridine-3-sulfonamide], the “Hct concentration compared to vehicle (significant decrease?)” value ([2]; zibotentan 30 mg/kg p.o. QD, day 14) was “not for the lower dose”, the “Hct concentration compared to vehicle” value ([2]; zibotentan 30, 100 and 300 mg/kg p.o. QD, day 7) was “significant (p<0.05) decrease” and the “Hct concentration compared to vehicle” value ([2]; zibotentan 100 and 300 mg/kg p.o. QD, day 14) was “significant (p<0.05) decrease”. The “Body weight, Difference in means vs Vehicle” value (shortened to “Body weight, Difference”) ([3]; Zibo 30 mg/kg p.o. QD 14 days) was 0.02, the “Body weight, Difference” value ([3]; Zibo 100 mg/kg p.o. QD 14 days) was 0.02 and the “Body weight, Difference” value ([3]; Zibo 300 mg/kg p.o. QD 14 days) was 0.01. The “Body weight change compared to vehicle” value ([3]; zibotentan 30, 100 and 300 mg/kg) was “no difference”, the “Day 7 Hb” value ([4]; Zibo 30 mg/kg p.o. QD) was 146.4 g/L and the “Day 14 Hb” value ([4]; Zibo 30 mg/kg p.o. QD) was 156.8 g/L. For the same compound, the “Day 7 Hb” value ([4]; Zibo 100 mg/kg p.o. QD) was 141.5 g/L, the “Day 14 Hb” value ([4]; Zibo 100 mg/kg p.o. QD) was 148.5 g/L and the “Day 7 Hb” value ([4]; Zibo 300 mg/kg p.o. QD) was 143.2 g/L. For the same compound, the “Day 14 Hb” value ([4]; Zibo 300 mg/kg p.o. QD) was 150.3 g/L, the “Hb compared to vehicle” value ([4]; zibotentan 30, 100 and 300 mg/kg, day 7) was “significant decrease” and the “Hb compared to vehicle” value ([4]; zibotentan 100 and 300 mg/kg, day 14) was “significant decrease”. The “Plasma Glucose” value ([5]; Zibo 30 mg/kg p.o. QD 14 days) was 9.76 ± 0.28 mmol/L, the “Plasma K” value ([5]; Zibo 30 mg/kg p.o. QD 14 days) was 4.50 ± 0.06 mmol/L and the “Plasma Na” value ([5]; Zibo 30 mg/kg p.o. QD 14 days) was 137.0 ± 0.96 mmol/L. The “Plasma Urea” value ([5]; Zibo 30 mg/kg p.o. QD 14 days) was 4.64 ± 0.20 mmol/L, the “Plasma Glucose” value ([5]; Zibo 100 mg/kg p.o. QD 14 days) was 9.65 ± 0.30 mmol/L and the “Plasma K” value ([5]; Zibo 100 mg/kg p.o. QD 14 days) was 4.52 ± 0.06 mmol/L. The “Plasma Na” value ([5]; Zibo 100 mg/kg p.o. QD 14 days) was 137.2 ± 0.97 mmol/L, the “Plasma Urea” value ([5]; Zibo 100 mg/kg p.o. QD 14 days) was 4.77 ± 0.25 mmol/L and the “Plasma Glucose” value ([5]; Zibo 300 mg/kg p.o. QD 14 days) was 9.34 ± 0.13 mmol/L. For the same compound, the “Plasma K” value ([5]; Zibo 300 mg/kg p.o. QD 14 days) was 4.76 ± 0.09 mmol/L, the “Plasma Na” value ([5]; Zibo 300 mg/kg p.o. QD 14 days) was 139.4 ± 0.86 mmol/L and the “Plasma Urea” value ([5]; Zibo 300 mg/kg p.o. QD 14 days) was 4.94 ± 0.39 mmol/L. For the same compound, the “Level of Na, K, glucose and urea in the plasma compared to vehicle” value ([5]; different doses of zibotentan) was “no change”, the “Urine Creatine” value ([6]; Zibo 30 mg/kg p.o. QD) was 88.8 ± 3.3 µmol and the “Urine Glucose” value ([6]; Zibo 30 mg/kg p.o. QD) was 0.01 ± 0.0 mmol. The “Urine K” value ([6]; Zibo 30 mg/kg p.o. QD) was 1.57 ± 0.05 mmol, the “Urine Na” value ([6]; Zibo 30 mg/kg p.o. QD) was 14.05 ± 0.95 mmol and the “Urine Urea” value ([6]; Zibo 30 mg/kg p.o. QD) was 6.19 ± 1.71 mmol. For the same compound, the Urine volume ([6]; Zibo 30 mg/kg p.o. QD) was 28.19 ± 2.99 mL, the “Urine Creatine” value ([6]; Zibo 100 mg/kg p.o. QD) was 82.8 ± 2.5 µmol and the “Urine Glucose” value ([6]; Zibo 100 mg/kg p.o. QD) was 0.02 ± 0.0 mmol. For the same compound, the “Urine K” value ([6]; Zibo 100 mg/kg p.o. QD) was 1.52 ± 0.06 mmol, the “Urine Na” value ([6]; Zibo 100 mg/kg p.o. QD) was 13.01 ± 1.07 mmol and the “Urine Urea” value ([6]; Zibo 100 mg/kg p.o. QD) was 4.04 ± 0.39 mmol. The Urine volume ([6]; Zibo 100 mg/kg p.o. QD) was 23.88 ± 2.02 mL, the “Urine Creatine” value ([6]; Zibo 300 mg/kg p.o. QD) was 82.9 ± 3.3 µmol and the “Urine Glucose” value ([6]; Zibo 300 mg/kg p.o. QD) was 0.18 ± 0.1 mmol. For the same compound, the “Urine K” value ([6]; Zibo 300 mg/kg p.o. QD) was 1.44 ± 0.03 mmol, the “Urine Na” value ([6]; Zibo 300 mg/kg p.o. QD) was 13.76 ± 0.76 mmol and the “Urine Urea” value ([6]; Zibo 300 mg/kg p.o. QD) was 4.60 ± 0.19 mmol. The Urine volume ([6]; Zibo 300 mg/kg p.o. QD) was 29.09 ± 2.74 mL, the “Level of urinary volume, Na, K, urea, creatinine and glucose compared to vehicle” value ([6]; different doses of zibotentan) was “no change” and the “Efficacy in Phase 3” value [7] was “insufficient efficacy”.
